Patent publication US20170333516A1, “PREVENTIVE OR THERAPEUTIC AGENT FOR AGE-RELATED MACULAR DEGENERATION” (JUNTENDO EDUCATIONAL FOUNDATION, priority 2014, published 2017)

System: angiogenesis from the choroid plexus
Assay: Laser-induced angiogenesis from the choroid plexus (AMD model), administration into the vitreous body
Assay type: in vivo, mouse
Conditions: for suppressive effect on AMD onset (FIG. 2): figure legend FIG. 2, old mice, administration into vitreous body after laser irradiation
Source text: Laser light (power: 200 mW, exposure time: 0.10 seconds, wavelength: 532 nm) was irradiated in 4 to 5 spots onto male young (8 to 12 weeks) and old (44 to 48 weeks) BLT1^+/+ mice and BLT1^−/− mice, and after 7 days, the eyes were isolated and fixed using a phosphate buffered saline (PBS) containing 4% paraformaldehyde (PFA), the cornea, lens, and retina were removed, and then fixed again using 4% PFA/PBS. The ocular tissue containing the retinal pigment epithelia and choroid plexus were immersed in PBS containing methanol in order of 50%, 75%, 100%, 75%, 50%, and 25% to remove water, and then incubated at 4° C. for 1 hour in a blocking solution (1% bovine blood serum albumin, phosphate buffered saline containing 0.1% Triton X-100), and then stained overnight at 4° C. using isolectin B4 (IB4, […]) labeled with FITC. Incisions were made in the samples and the samples were molded on a slide glass, sealed with a mounting agent containing an antifading reagent, and then a cover glass was placed thereon to produce a flat mount. A three-dimensional IB4 positive blood vessels image was captured using a confocal microscope, and the volume of angiogenesis that occurred in each mouse was measured.
Immediately after laser light irradiation of C57BL/6 background old mice purchased (Japan SLC, wild mice, 40 weeks or older, male), DMSO (final: 0.1%, diluted with PBS), CP105696 (where in the formula (1), R^1=phenyl and R^2=1-carboxycyclopentyl group) which is a BLT1 antagonist, or zileuton, bestatin, or MK886 each of which is an inhibitor for LTB4 production-related enzyme was administered into a vitreous body of each mouse. Similar to Test Example 1, angiogenesis from the choroid plexus was evaluated 7 days after laser irradiation.

Compound	suppressive effect on AMD onset (FIG. 2)	angiogenesis volume (C57BL/6 background old mice (40 weeks or older, male), administered into vitreous body immediately after laser irradiation, evaluated 7 days after laser irradiation)
CC(C)c1ccc2c(c1)c(SC(C)(C)C)c(CC(C)(C)C(=O)O)n2Cc1ccc(Cl)cc1 [MK886]	suppressive effect	–
O=C(O)C1(c2ccc3c(c2)OC[C@H](Cc2ccc(-c4ccccc4)cc2)[C@H]3O)CCCC1 [CP 105696, 1-[(3S,4R)-4-hydroxy-3-[(4-phenylphenyl)methyl]chroman-7-yl]cyclopentane-1-carboxylic acid]	suppressive effect	significantly reduced in a concentration-dependent manner
CC(c1cc2ccccc2s1)N(O)C(N)=O (centres unmarked) [zileuton, N-[1-(1-benzothien-2-yl)ethyl]-N-hydroxyurea]	suppressive effect	–
CC(C)C[C@H](NC(=O)[C@@H](O)[C@H](N)Cc1ccccc1)C(=O)O [bestatin, N-[(2S,3R)-3-amino-2-hydroxy-4-phenylbutyryl]-L-leucine]	suppressive effect	–
